What was measured:
Assay in all cases: selective drug sensitivity score (sDSS, relative to normal bone marrow) (sDSS (score)); higher = more potent and effective on the cell line relative to normal bone marrow cells
Conditions in all cases: 72 h
[1] = tested on: NALM-6
[2] = tested on: KOPN-8
[3] = tested on: NALM-16
[4] = tested on: COG-LL-402h
[5] = tested on: HAL-01
[6] = tested on: TANOUE
[7] = tested on: MHH-CALL-3
[8] = tested on: RCH-ACV
[9] = tested on: PF-382
[10] = tested on: MHH-CALL-2
[11] = tested on: KARPAS-45
[12] = tested on: COG-LL-317
[13] = tested on: RPMI-8402
[14] = tested on: P30-OHKUBO
[15] = tested on: MHH-CALL-4
[16] = tested on: SEM cells
[17] = tested on: ALL-PO
[18] = tested on: 697
[19] = tested on: MOLT-4
[20] = tested on: CCRF-HSB2
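Note: ALL cell lines in 384-well plates, five doses spanning 10,000-fold, each plate scaled between vehicle and 100 µmol/L benzalkonium chloride controls, sDSS an adapted area-under-curve metric.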

Row | Compound | selective drug sensitivity score [1] | selective drug sensitivity score [2] | selective drug sensitivity score [3] | selective drug sensitivity score [4] | selective drug sensitivity score [5] | selective drug sensitivity score [6] | selective drug sensitivity score [7] | selective drug sensitivity score [8] | selective drug sensitivity score [9] | selective drug sensitivity score [10] | selective drug sensitivity score [11] | selective drug sensitivity score [12] | selective drug sensitivity score [13] | selective drug sensitivity score [14] | selective drug sensitivity score [15] | selective drug sensitivity score [16] | selective drug sensitivity score [17] | selective drug sensitivity score [18] | selective drug sensitivity score [19] | selective drug sensitivity score [20]
1 | CN(C(=O)c1ccc(F)cc1C(F)(F)F)C1CCN(c2nnc(-c3ccnn3C)c3ccccc23)CC1 [Taladegib] (top concentration 10000 nM) | 2.68 | 6.68 | 0.88 | -1.12 | 2.78 | 4.98 | -0.32 | -0.52 | 0.78 | 3.18 | -0.92 | -1.12 | 2.38 | -0.02 | -1.12 | -1.12 | -0.52 | 1.88 | -0.12 | -0.92
2 | COCCNCc1ccc(-c2cc3nccc(Oc4ccc(NC(=O)C5(C(=O)Nc6ccc(F)cc6)CC5)cc4F)c3s2)nc1 [Sitravatinib] (top concentration 2500 nM) | -0.12 | 8.08 | 2.78 | 1.78 | 5.28 | -0.42 | -0.42 | 7.38 | 1.08 | 6.78 | 3.78 | -0.42 | 2.38 | 5.78 | 5.48 | 26.2 | 14.8 | 1.58 | 0.78 | 9.28
3 | CO[C@@H]1[C@H](N(C)C(=O)c2ccccc2)C[C@H]2O[C@]1(C)n1c3ccccc3c3c4c(c5c6ccccc6n2c5c31)C(=O)NC4 [Midostaurin] (top concentration 10000 nM) | 7.56 | 12.1 | -0.64 | 6.86 | 3.06 | -7.24 | -0.64 | 16.2 | 4.46 | 3.86 | 4.06 | 8.96 | 3.66 | 14.4 | 3.66 | 19.3 | 14.8 | 14 | 8.66 | 11.7
4 | CO[C@H]1C[C@@H]2CC[C@@H](C)[C@@](O)(O2)C(=O)C(=O)N2CCCC[C@H]2C(=O)O[C@H]([C@H](C)C[C@@H]2CC[C@@H](O)[C@H](OC)C2)CC(=O)[C@H](C)/C=C(\C)[C@@H](O)[C@@H](OC)C(=O)[C@H](C)C[C@H](C)/C=C/C=C/C=C/1C [Sirolimus] (top concentration 100 nM) | -2.86 | 17.9 | -2.26 | 0.04 | 0.44 | -3.76 | 5.74 | 11.1 | 1.84 | 0.84 | -0.16 | 0.74 | -1.76 | 1.34 | -0.76 | 1.34 | 0.14 | 6.34 | -2.46 | 3.14
5 | COC12C(COC(N)=O)C3=C(C(=O)C(C)=C(N)C3=O)N1CC1NC12 (stereo in doubt) [Mitomycin_C] (top concentration 10000 nM) | -2.86 | 4.24 | -2.86 | -2.86 | 0.74 | -2.86 | -2.86 | 4.84 | -2.86 | 1.54 | -2.86 | -2.66 | -2.86 | 2.24 | -1.66 | 3.84 | -0.76 | 2.34 | -2.86 | -2.86
6 | COCC[n+]1c2c(n(Cc3cnccn3)c1C)C(=O)c1ccccc1C2=O [Sepantronium_bromide] (top concentration 10000 nM) | 22.3 | 22.8 | 22.2 | 22.8 | -12.6 | 14.7 | 22.3 | 17.9 | 14.1 | 22.8 | 11 | 13.3 | 7.64 | 22.8 | 19.4 | 13.3 | 4.44 | 22.8 | 15.9 | 14.6
7 | CCNC(=O)C[C@@H]1N=C(c2ccc(Cl)cc2)c2cc(OC)ccc2-n2c(C)nnc21 [Molibresib] (top concentration 10000 nM) | 3.2 | 10.6 | 1.6 | 5.3 | 2.7 | -6.2 | 16.7 | 7.7 | 2.7 | 8.4 | 5.3 | 3.2 | 1.4 | 6.4 | 6.9 | 7.7 | 3.6 | 7.4 | -4.4 | -0.5
8 | NC(=O)/C(=C/n1cnc(-c2cc(C(F)(F)F)cc(C(F)(F)F)c2)n1)c1cncnc1 [Eltanexor] (top concentration 10000 nM) | 10.6 | 14.2 | -0.84 | 12.1 | 5.46 | -11.8 | 22.3 | 12.7 | 8.36 | 11.4 | 8.96 | 14.7 | 9.36 | 11.8 | 6.76 | 3.96 | 11.4 | 13.2 | 11.4 | 12
9 | C#Cc1cccc(Nc2ncnc3cc(OCCOC)c(OCCOC)cc23)c1 [Erlotinib] (top concentration 10000 nM) | -1.24 | 7.06 | -1.24 | 4.06 | 0.46 | -1.24 | 1.66 | 4.26 | 0.46 | 1.76 | 2.86 | 0.16 | 2.26 | 2.96 | -1.24 | 1.86 | 5.46 | 5.86 | 1.56 | 4.66
10 | Cn1ncc(Cl)c1-c1cc(C(=O)N[C@H](CN)Cc2ccc(F)c(F)c2)oc1Cl [Uprosertib] (top concentration 10000 nM) | 2.9 | 9.1 | 5.4 | 1.7 | 3.9 | -1.2 | -1.4 | 8.3 | 4.6 | 2.1 | 5.6 | 18.8 | 3.4 | 6.5 | 4.6 | 4.5 | 9 | 0.3 | 9.3 | 0.7
11 | CCCCCCCCCCCCCCCCOP(=O)([O-])OCC[N+](C)(C)C [Miltefosine] (top concentration 100000 nM) | 1.66 | 7.56 | -0.34 | 0.46 | -1.34 | 1.76 | -2.94 | 3.16 | 1.16 | 6.96 | 2.26 | 1.06 | 1.46 | 2.26 | -1.34 | 4.36 | 2.26 | 1.46 | 0.26 | 7.26
12 | O=C(Nc1cccc(NC(=O)c2cccc(O)c2O)c1)c1cccc(O)c1O [MST-312] (top concentration 10000 nM) | 9.5 | 15.2 | 2.8 | 8.6 | 7.6 | 3.7 | -4 | 0.7 | 6 | 10.8 | 8.1 | 18.2 | 5.9 | 8.1 | 1.8 | 0.6 | 5.6 | -1.2 | 9.2 | 12.8
13 | CCS(=O)(=O)N1CCN(c2ccc(Nc3ncc(C(N)=O)c(NC4CC4)n3)cc2)CC1 [Cerdulatinib] (top concentration 10000 nM) | 1.44 | 3.14 | -11.4 | -2.56 | -11.9 | -10.1 | -11.9 | 13.3 | -5.16 | -8.26 | -2.36 | -7.66 | -5.56 | 3.44 | -5.46 | 2.54 | 6.04 | -3.66 | -7.46 | 1.34
14 | CN(C)C1CCN(C(=O)c2ccc(NC(=O)Nc3ccc(-c4nc(N5CCOCC5)nc(N5CCOCC5)n4)cc3)cc2)CC1 [Gedatolisib] (top concentration 1000 nM) | 5.16 | 10.1 | 1.46 | 8.56 | -4.54 | -1.04 | -1.64 | 17.5 | 5.06 | 3.26 | 3.76 | 5.06 | 3.66 | 15.2 | 3.66 | 1.16 | 1.06 | 11.3 | 5.46 | 8.86
15 | Cc1[nH]nc(C(F)(F)F)c1Cc1sc2c(c1C(=O)N1C[C@](C)(O)CO1)c(=O)n(C)c(=O)n2C(C)C [AZD3965] (top concentration 1000 nM) | 11.1 | 0 | 0 | 0 | 1 | 2.6 | 0 | 0 | 1.7 | 1.4 | 0 | 0.3 | 12.6 | 1.8 | 0 | 0 | 3.8 | 3.6 | 0 | 0
16 | COc1cc(Nc2ncc3c(n2)-c2ccc(Cl)cc2C(c2c(F)cccc2OC)=NC3)ccc1C(=O)O [Alisertib] (top concentration 10000 nM) | 20.1 | 21.3 | 0.28 | 16.1 | 17.8 | -5.62 | 12 | 24.3 | 14.3 | 14.9 | 27.9 | 29.6 | 10.2 | 25.4 | -5.62 | 26.8 | 15.6 | 25 | 21.8 | 26.4
17 | Nc1ccccc1NC(=O)c1ccc(CNc2nccc(-c3cccnc3)n2)cc1 [Mocetinostat] (top concentration 10000 nM) | 2.94 | 9.24 | -0.46 | 8.84 | 2.14 | -8.46 | 12.4 | 9.54 | 6.04 | 7.74 | 8.84 | 5.64 | 6.34 | 7.54 | 8.04 | 9.04 | 7.24 | 8.84 | 5.24 | 3.94

From the supplement of paper PMC8967900
